From US9980953B2, “Combined composition for preventing or treating cancer comprising a benzophenone thiazole derivatives as a VDA and topoisomerase inhibitor” (CHONG KUN DANG PHARMACEUTICAL CORP., priority 2016, dated 2018)

Assays:
Colo205 xenograft = test: Anti-cancer effect in a Colo205 xenograft mouse model; assay type: in vivo, BALB/c-nu/nu male mice; conditions: irinotecan 20 mg/kg once per 4 days injection; for size of tumor compared to administration group of an excipient: formula 1 4 mg/kg every day oral, during administration period (10 weeks); for dead mice: observed for 85 days, formula 1 4 mg/kg daily oral
Description: A human colorectal cancer cell line, Colo205 was purchased from ATCC (USA). The Colo205 cell line was maintained with RPMI1640 (Gibco, USA) including 10% fetal bovine serum (FBS; Gibco, Grand Island, N.Y., USA) and 1% antibiotics (Gibco, USA).
The human colorectal carcinoma, Colo205 cell was subcutaneously administered in BALB/c-nu/nu male mice (5×10^6 cell/head), and after grouping in order to making an average size of tumor 165˜167 mm^3, used in experiments.
A compound of formula 1 was prepared by the preparation method disclosed in International Laid-open Patent Publication WO 2009-119980, and prepared at 0.4 mg/ml concentration by dissolving with distilled water.
Irinotecan (Boryung, Korea) was prepared at 2 mg/ml concentration by diluting with 5% glucose saline solution. The solution to be used was prepared on the day of use, and remained solution was discarded.
The anti-cancer effect of the compound of formula 1 and irinotecan was estimated in the Colo205 xenograft model. Experimental groups were divided into the following administration groups. • Control group: vehicle • Single administration group of the compound of formula 1: the compound of formula 1 (4 mg/kg, every day, oral) • Single administration group of irinotecan: irinotecan (20 mg/kg, once per 4 days, injection) • Coadministration group: the compound of formula 1 (4 mg/kg, every day, oral), irinotecan (20 mg/kg, once per 4 days, injection)
(§1) All the experimental groups were orally and intraperitoneally administered for 10 weeks. Toxicity was observed by measuring weight of mice, and the growth of tumor was measured using calipers during experimental period. The volume of tumor was calculated according to the following calculation formula. tumor volume=(length×width^2)/2
The data of size of tumor, regression of tumor, and body weight changes was tested using Bartlett's test at significance level α=0.05, and as a result of the test, data having no significance was tested using one-way analysis of variance at significance level α=0.05, and data having significance was tested using Kruskal-Wallis test at significance level α=0.05.
Statistical analysis between each group was performed using GraphPad PRISM® Version 5.0 (GraphPad Software, USA).
Vehicle administration group was euthanized at the day 43 because cancer became too big.

HCT116 xenograft = test: Anti-cancer effect in a HCT116 xenograft mouse model; assay type: in vivo, Athymic nude mouse (Hsd:Athymic Nude-Foxn1nu) male mice; conditions: formula 1 5 mg/kg once a week injection, irinotecan 20 mg/kg once per 4 days injection, intraperitoneal, 4 weeks
Experimental: A human colorectal cancer cell line, HCT116 was purchased from ATCC (USA). The HCT116 cell line was maintained with RPMI1640 (Gibco, USA) including 10% fetal bovine serum (FBS; Gibco, USA).
The human colorectal carcinoma, HCT116 cell was subcutaneously administered in Athymic nude mouse (Hsd:Athymic Nude-Foxn1^nu) male mice (5×10^6 cell/head), and used in experiments when the size of tumor became 150-200 mm^3.
A compound of formula 1 was prepared by the preparation method disclosed in International Laid-open Patent Publication WO 2009-119980, and prepared at 0.5 mg/ml concentration by dissolving with 0.9% saline solution.
Irinotecan (Jeilpharm, Korea) was prepared at 2 mg/ml concentration by diluting with 5% dextrose solution.
The anti-cancer effect of the compound of formula 1 and irinotecan was estimated in the HCT116 xenograft model. […]
as §1, with “were” for “were orally and”, “4” for “10”, “volume=(length×width^2)/2 […]” for “volume=(length×width^2)/2”

| Structure (SMILES) | size of tumor compared to administration group of an excipient (Colo205 xenograft) | dead mice (Colo205 xenograft) | size of tumor compared to administration group of an excipient (HCT116 xenograft) |
| --- | --- | --- | --- |
| COc1cc(C(=O)c2ccc(-c3csc(NC(=O)[C@@H](N)C(C)C)n3)cc2-n2cncn2)cc(OC)c1OC [compound of formula 1, (S)-N-(4-(3-(1H-1,2,4-triazol-1-yl) -4-(3,4,5-trimethoxybenzoyl)phenyl)thiazol-2-yl)-2-amino-3-methylbutanamide] | significantly decreased | 8 mice | significantly decreased |
| CCc1c2c(nc3ccc(OC(=O)N4CCC(N5CCCCC5)CC4)cc13)-c1cc3c(c(=O)n1C2)COC(=O)[C@]3(O)CC [irinotecan] | significantly decreased | no dead subject | significantly decreased |
